Measurements: ChEMBL document CHEMBL5532720, “A Potent Solution for Tumor Growth and Angiogenesis Suppression via an ELR+CXCL-CXCR1/2 Pathway Inhibitor” (ACS Med Chem Lett, 2024)
Active and inactive are the calls of the source. The rule behind the calls is not given here.

Key:
[1] = Clearance in NOD SCID mouse at 1 mg/kg, iv; type: ADME, organism-based; conditions: in vivo
[2] = Genotoxicity in Salmonella typhimurium TA1537 upto 100 uM in presence of S9 fraction by Ames test; type: toxicity, subcellular; conditions: salmonella enterica subsp. enterica serovar typhimurium, s9, 100 µM
[3] = Genotoxicity in Salmonella typhimurium TA100 upto 100 uM in absence of S9 fraction by Ames test; type: toxicity; conditions: salmonella enterica subsp. enterica serovar typhimurium, s9, 100 µM
[4] = target: Tyrosine-protein kinase JAK1 (Homo sapiens) (UniProt P23458); experiment: Inhibition of JAK1 (unknown origin) at 10 uM in presence of ATP at Km concentration
[5] = Genotoxicity in Salmonella typhimurium TA98 upto 100 uM in presence of S9 fraction by Ames test; type: toxicity, subcellular; conditions: salmonella enterica subsp. enterica serovar typhimurium, s9, 100 µM
TIME = experiment: Antiangiogenic activity in human TIME cells assessed as disruption of blood vessel network at 2.5 uM incubated for 24 hrs; type: functional, cell-based
[6] = Tmax in NOD SCID mouse at 100 mg/kg, po; type: ADME, organism-based; conditions: in vivo
[7] = tested on: Cisplatin and radiotherapy resistant CAL33RR; experiment: Inhibition of CXCL8-dependent cell migration in human Cisplatin and radiotherapy resistant CAL33RR cells at 0.5 uM incubated for 24 hrs by Boyden chamber based crystal violet staining analysis; type: functional
[8] = Protein binding in human plasma; type: ADME, cell-free; conditions: read-out: PPB (converted)
[9] = target: Serine/threonine-protein kinase PLK1 (Homo sapiens) (UniProt P53350); experiment: Inhibition of PLK1 (unknown origin) at 10 uM in presence of ATP at Km concentration
Chain of Serine/threonine-protein kinase PLK1 (Homo sapiens) (P53350 whole entry): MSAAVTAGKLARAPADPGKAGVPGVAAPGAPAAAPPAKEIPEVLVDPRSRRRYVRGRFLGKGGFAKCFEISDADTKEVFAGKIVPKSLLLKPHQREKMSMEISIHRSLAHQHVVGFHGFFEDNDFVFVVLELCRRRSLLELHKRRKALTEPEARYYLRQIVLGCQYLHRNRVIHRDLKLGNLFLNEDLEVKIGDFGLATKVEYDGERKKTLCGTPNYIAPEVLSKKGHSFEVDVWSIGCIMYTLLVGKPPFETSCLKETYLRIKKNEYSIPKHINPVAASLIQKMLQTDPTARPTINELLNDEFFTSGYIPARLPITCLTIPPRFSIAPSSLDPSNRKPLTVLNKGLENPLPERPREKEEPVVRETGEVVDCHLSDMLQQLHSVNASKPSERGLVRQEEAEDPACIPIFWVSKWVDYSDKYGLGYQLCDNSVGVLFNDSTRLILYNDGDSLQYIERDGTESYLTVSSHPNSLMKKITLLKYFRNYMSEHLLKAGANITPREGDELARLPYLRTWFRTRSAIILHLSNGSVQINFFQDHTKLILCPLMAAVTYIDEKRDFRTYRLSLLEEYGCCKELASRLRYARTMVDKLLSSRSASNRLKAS

Chain of Tyrosine-protein kinase JAK1 (Homo sapiens) (P23458 whole entry): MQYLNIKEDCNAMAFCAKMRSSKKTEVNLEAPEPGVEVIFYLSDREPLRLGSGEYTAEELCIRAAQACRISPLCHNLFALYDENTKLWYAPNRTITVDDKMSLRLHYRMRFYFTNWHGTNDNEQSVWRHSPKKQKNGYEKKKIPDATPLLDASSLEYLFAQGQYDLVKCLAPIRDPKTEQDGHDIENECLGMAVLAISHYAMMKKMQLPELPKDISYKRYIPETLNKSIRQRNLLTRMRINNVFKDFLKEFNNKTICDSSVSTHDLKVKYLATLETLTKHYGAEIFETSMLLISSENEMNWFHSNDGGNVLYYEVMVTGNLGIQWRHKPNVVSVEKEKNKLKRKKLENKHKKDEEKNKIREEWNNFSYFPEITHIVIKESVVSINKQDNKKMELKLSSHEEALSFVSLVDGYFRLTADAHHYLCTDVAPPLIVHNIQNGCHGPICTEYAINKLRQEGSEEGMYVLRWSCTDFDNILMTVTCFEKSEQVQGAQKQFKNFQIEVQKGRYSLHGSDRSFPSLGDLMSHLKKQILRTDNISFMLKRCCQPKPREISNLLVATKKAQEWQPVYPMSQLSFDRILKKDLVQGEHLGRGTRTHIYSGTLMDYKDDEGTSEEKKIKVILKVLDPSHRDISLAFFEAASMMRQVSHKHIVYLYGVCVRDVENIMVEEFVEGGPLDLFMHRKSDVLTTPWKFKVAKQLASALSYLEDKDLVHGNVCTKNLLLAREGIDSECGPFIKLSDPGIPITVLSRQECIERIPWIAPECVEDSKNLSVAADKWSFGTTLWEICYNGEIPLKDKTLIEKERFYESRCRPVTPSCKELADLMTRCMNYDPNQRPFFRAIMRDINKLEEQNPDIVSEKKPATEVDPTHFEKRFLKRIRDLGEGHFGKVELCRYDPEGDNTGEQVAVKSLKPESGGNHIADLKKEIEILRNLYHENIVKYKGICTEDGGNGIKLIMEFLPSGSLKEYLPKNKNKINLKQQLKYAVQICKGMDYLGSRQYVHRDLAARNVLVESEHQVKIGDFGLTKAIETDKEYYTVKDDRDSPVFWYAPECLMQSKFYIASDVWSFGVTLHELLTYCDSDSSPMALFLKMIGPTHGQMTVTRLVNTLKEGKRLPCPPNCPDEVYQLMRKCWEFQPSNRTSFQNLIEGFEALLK

clearance [1]: 39.3 mL/min/kg
inhibition [4]: inactive
Tmax [6]: 1.5 h
fraction unbound [8]: 0.004
inhibition [9]: inactive
Compound: O=C(Nc1cc(Cl)cc(Cl)c1)Nc1nc2ccc([N+](=O)[O-])cc2s1
Activity [2]: Non-Toxic
Activity [3]: Non-Toxic
Activity [5]: Non-Toxic
Activity (TIME): Active
inhibition [7]: Active
